From ChEMBL document CHEMBL1782052, “Artemisinin-dipeptidyl vinyl sulfone hybrid molecules: design, synthesis and preliminary SAR for antiplasmodial activity and falcipain-2 inhibition” (Bioorg Med Chem Lett, 2009)

Key:
[1] = tested on: Plasmodium falciparum; assay: Antiplasmodial activity against chloroquine-resistant Plasmodium falciparum W2 synchronized ring stage parasites infected in erythrocytes assessed as reduction in parasitemia after 48 hrs by Giemsa staining; type: functional, organism-based; conditions: W2, 48 h
[2] = Inhibition of Plasmodium chabaudi recombinant chabaupain expressed in Escherichia coli
[3] = Inhibition of Plasmodium falciparum recombinant falcipain-2 incubated for 30 mins at room temperature before addition of substrate benzoxycarbonyl-Leu-Arg-7-amino-4-methyl-coumarin by spectrofluorometry
[4] = Inhibition of falcipain-2 in Plasmodium falciparum trophozoite extracts incubated for 30 mins at room temperature before addition of substrate benzyloxycarbonyl-Phe-Arg-7-amino-4-methyl-coumarin by spectrofluorometry
[5] = tested on: Plasmodium falciparum; assay: Antiplasmodial activity against Plasmodium falciparum Itg2 synchronized ring stage parasites infected in erythrocytes assessed as reduction in parasitemia after 48 hrs by Giemsa staining; type: functional, organism-based; conditions: Itg2, 48 h
[6] = tested on: Plasmodium falciparum; assay: Antiplasmodial activity against chloroquine and pyrimethamine-resistant Plasmodium falciparum V1/S; type: functional, organism-based
[7] = tested on: Plasmodium falciparum; assay: Antiplasmodial activity against chloroquine-sensitive Plasmodium falciparum 3D7; type: functional, organism-based
[8] = tested on: Plasmodium falciparum; assay: Antiplasmodial activity against atovaquone-resistant Plasmodium falciparum FCR3; type: functional, organism-based
[9] = tested on: Plasmodium falciparum; assay: Antiplasmodial activity against chloroquine-sensitive and mefloquine-resistant Plasmodium falciparum D6; type: functional, organism-based

Structure (SMILES) | IC50 [1] [nM] | IC50 [2] [nM] | IC50 [3] [nM] | IC50 [4] [nM] | IC50 [5] [nM] | IC50 [6] [nM] | IC50 [7] [nM] | IC50 [8] [nM] | IC50 [9] [nM]
C[C@@H]1[C@H](OCc2ccc(C(=O)O)cc2)O[C@@H]2O[C@@]3(C)CC[C@@H]4[C@@H](C)CC[C@@H]1[C@]24OO3 (stereo in doubt) [ARTELINIC ACID] | 5.66 |  |  |  |  |  |  |  | 
C[C@H]1[C@@H](OCc2ccc(C(=O)N[C@@H](Cc3ccccc3)C(=O)N[C@H](/C=C/S(=O)(=O)c3ccccc3)CCc3ccccc3)cc2)O[C@@H]2O[C@@]3(C)CC[C@H]4[C@H](C)CC[C@@H]1[C@@]24OO3 | 3.94 | 538 | 9220 |  |  |  |  |  | 
CC(C)C[C@H](NC(=O)c1ccc(CO[C@H]2O[C@@H]3O[C@@]4(C)CC[C@H]5[C@H](C)CC[C@@H]([C@H]2C)[C@@]35OO4)cc1)C(=O)N[C@H](/C=C/S(=O)(=O)c1ccccc1)CCc1ccccc1 | 2.08 | 2290 | 4950 |  |  |  |  |  | 
CC(C)C[C@H](NC(=O)[C@H]1O[C@@H]1C(=O)O)C(=O)NCCCCN=C(N)N [E-64] |  | 9 | 84 |  |  |  |  |  | 
CC(C)C[C@H](NC(=O)N1CCOCC1)C(=O)N[C@H](/C=C/S(=O)(=O)c1ccccc1)CCc1ccccc1 |  |  |  | 3 | 22 |  |  |  | 
C[C@H]1[C@@H](OCc2ccc(C(=O)N[C@@H](Cc3ccccc3)C(=O)N[C@H](/C=C/S(C)(=O)=O)CCc3ccccc3)cc2)O[C@@H]2O[C@@]3(C)CC[C@H]4[C@H](C)CC[C@@H]1[C@@]24OO3 | 4.81 |  | 21600 |  |  | 2.25 | 2.5 | 2 | 
C[C@@H]1CC[C@H]2[C@@H](C)C(=O)O[C@@H]3O[C@@]4(C)CC[C@@H]1[C@]32OO4 [ARTEMISININ] | 12 |  |  |  |  | 4.24 | 9.71 | 5.38 | 
CC(C)C[C@H](NC(=O)c1ccc(CO[C@H]2O[C@@H]3O[C@@]4(C)CC[C@H]5[C@H](C)CC[C@@H]([C@H]2C)[C@@]35OO4)cc1)C(=O)N[C@H](/C=C/S(C)(=O)=O)CCc1ccccc1 | 4.21 |  | 350 |  |  | 1.65 | 2.48 | 1.89 | 4.96
CC(C)C[C@H](NC(=O)OC(C)(C)C)C(=O)N[C@H](/C=C/S(=O)(=O)c1ccccc1)CCc1ccccc1 | > 10000 |  | 210 |  |  |  |  |  | 
C[C@H]1[C@@H](OCc2ccc(C(=O)NCC(=O)N[C@H](/C=C/S(=O)(=O)c3ccccc3)Cc3ccccc3)cc2)O[C@@H]2O[C@@]3(C)CC[C@H]4[C@H](C)CC[C@@H]1[C@@]24OO3 | 4.09 | 56800 | 16500 |  |  | 1.59 | 3.11 | 1.75 | 4.71
C[C@H]1[C@@H](OCc2ccc(C(=O)N[C@@H](Cc3ccccc3)C(=O)N[C@H](/C=C/S(=O)(=O)c3ccccc3)Cc3ccccc3)cc2)O[C@@H]2O[C@@]3(C)CC[C@H]4[C@H](C)CC[C@@H]1[C@@]24OO3 | 2.27 | 400 | 22400 |  |  |  |  |  | 
